The values that follow come from patent US10004732B2 (Novartis AG, priority 2014, dated 2018).

Structures can show the parent of a compound that is named as a salt. Where two headings read alike, the source gives them in different places.

A short description of data set [1]: Microsomal clearance assay (M). As to conditions: intrinsic clearance in rat liver microsomes.
Protocol: The experiments were performed in 96-well glass plates at 37° C. on an automated Tecan EVO platform. Test compounds at a concentration of 10 mM in pure DMSO were diluted 1:1000 in water to 10 μM. […] Reactions were initiated by the addition of 150 μL of a cofactor solution containing 2 mM NADPH.
The next data set deals with PI 3-kinase gamma (Homo sapiens, UniProt P48736). The experiment in a line: TR-FRET Adapta assay, assay E. The data set is classed as biochemical. As to conditions: read-out: Assay E PI3Kγ IC50.
The target of the next data set is PI 3-kinase alpha (Homo sapiens, UniProt P42336). Kind of data set: Kinase Glo Luminescent Kinase Assay (Kglo), assay A. The format is biochemical. The settings on record: read-out: Assay A PI3Kα IC50.
The next data set concerns the target mTOR (Homo sapiens, UniProt P42345). The experiment in a line: Lanthascreen kinase binding assay, assay G. The settings on record: read-out: Assay G mTOR IC50.
The target of another data set is PI 3-kinase delta (Homo sapiens, UniProt O00329). Kind of data set: TR-FRET Adapta assay, assay F.
Another data set concerns the target PI 4-kinase beta (Homo sapiens, UniProt Q9UBF8). The experiment in a line: Kinase Glo Luminescent Kinase Assay (Kglo), assay D. The settings on record: read-out: Assay D PI4Kβ IC50. The format is biochemical.
In another data set the target is Vps34 (Homo sapiens, UniProt Q8NEB9). The experiment in a line: Kinase Glo Luminescent Kinase Assay (Kglo), assay C. The format is biochemical. The settings on record: read-out: Assay C VPS34 IC50.
The target of a further data set is PI 3-kinase beta (Homo sapiens, UniProt P42338). The experiment in a line: Kinase Glo Luminescent Kinase Assay (Kglo), assay B. The format is biochemical. The settings on record: read-out: Assay B PI3Kβ IC50.
PI 3-kinase beta, sequence (P42338 whole entry): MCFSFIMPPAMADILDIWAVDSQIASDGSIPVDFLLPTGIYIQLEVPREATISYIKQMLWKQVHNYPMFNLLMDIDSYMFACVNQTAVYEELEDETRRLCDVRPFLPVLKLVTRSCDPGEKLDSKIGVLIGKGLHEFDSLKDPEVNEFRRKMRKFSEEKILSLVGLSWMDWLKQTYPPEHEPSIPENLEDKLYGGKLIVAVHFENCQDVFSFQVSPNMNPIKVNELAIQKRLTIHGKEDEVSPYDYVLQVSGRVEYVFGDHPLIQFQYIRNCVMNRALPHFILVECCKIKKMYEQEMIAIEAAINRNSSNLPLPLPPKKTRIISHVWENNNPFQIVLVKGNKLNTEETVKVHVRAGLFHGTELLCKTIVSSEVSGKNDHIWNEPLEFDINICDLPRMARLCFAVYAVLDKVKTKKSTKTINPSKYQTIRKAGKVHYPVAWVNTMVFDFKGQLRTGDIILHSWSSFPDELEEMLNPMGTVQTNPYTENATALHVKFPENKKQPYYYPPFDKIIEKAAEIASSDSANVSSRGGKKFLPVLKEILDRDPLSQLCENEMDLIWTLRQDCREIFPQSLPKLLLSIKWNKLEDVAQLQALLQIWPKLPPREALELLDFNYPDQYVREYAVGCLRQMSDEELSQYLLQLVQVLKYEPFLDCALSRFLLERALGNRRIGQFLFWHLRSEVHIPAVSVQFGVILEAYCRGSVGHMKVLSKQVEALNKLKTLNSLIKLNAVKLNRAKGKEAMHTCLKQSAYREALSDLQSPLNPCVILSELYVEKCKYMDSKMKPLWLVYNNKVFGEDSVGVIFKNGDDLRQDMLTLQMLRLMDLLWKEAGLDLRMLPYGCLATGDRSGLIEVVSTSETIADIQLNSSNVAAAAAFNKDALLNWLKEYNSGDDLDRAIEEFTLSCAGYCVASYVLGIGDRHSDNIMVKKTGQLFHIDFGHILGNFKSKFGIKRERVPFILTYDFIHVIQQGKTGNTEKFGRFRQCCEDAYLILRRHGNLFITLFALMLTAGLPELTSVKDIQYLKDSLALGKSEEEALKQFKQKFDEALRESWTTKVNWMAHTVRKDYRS
PI 3-kinase beta, sequence (P27986 461-568 partner): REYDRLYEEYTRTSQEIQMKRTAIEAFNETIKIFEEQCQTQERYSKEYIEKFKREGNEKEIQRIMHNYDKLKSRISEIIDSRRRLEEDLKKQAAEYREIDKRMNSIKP

PI 4-kinase beta, sequence (Q9UBF8 whole entry): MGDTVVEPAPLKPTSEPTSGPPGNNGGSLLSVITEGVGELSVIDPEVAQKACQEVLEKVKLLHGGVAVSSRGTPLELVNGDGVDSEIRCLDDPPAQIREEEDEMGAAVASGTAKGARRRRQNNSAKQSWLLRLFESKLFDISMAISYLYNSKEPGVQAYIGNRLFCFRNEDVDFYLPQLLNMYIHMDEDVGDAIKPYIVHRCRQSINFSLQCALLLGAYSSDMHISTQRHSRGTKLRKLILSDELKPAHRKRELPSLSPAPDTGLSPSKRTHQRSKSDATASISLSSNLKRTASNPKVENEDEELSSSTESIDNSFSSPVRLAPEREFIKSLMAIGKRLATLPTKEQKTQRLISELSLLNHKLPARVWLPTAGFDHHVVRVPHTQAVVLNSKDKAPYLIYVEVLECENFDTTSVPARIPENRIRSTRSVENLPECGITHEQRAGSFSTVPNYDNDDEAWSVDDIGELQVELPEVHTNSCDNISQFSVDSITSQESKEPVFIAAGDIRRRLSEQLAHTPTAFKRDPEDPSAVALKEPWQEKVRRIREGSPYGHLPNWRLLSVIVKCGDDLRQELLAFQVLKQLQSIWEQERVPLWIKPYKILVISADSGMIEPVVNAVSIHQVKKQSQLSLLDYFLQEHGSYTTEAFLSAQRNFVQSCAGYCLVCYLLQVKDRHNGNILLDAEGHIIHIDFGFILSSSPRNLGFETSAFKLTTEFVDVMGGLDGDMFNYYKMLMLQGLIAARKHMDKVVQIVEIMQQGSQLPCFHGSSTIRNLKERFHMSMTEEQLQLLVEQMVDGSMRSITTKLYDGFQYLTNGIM
Vps34, sequence (Q8NEB9 whole entry, species assumed): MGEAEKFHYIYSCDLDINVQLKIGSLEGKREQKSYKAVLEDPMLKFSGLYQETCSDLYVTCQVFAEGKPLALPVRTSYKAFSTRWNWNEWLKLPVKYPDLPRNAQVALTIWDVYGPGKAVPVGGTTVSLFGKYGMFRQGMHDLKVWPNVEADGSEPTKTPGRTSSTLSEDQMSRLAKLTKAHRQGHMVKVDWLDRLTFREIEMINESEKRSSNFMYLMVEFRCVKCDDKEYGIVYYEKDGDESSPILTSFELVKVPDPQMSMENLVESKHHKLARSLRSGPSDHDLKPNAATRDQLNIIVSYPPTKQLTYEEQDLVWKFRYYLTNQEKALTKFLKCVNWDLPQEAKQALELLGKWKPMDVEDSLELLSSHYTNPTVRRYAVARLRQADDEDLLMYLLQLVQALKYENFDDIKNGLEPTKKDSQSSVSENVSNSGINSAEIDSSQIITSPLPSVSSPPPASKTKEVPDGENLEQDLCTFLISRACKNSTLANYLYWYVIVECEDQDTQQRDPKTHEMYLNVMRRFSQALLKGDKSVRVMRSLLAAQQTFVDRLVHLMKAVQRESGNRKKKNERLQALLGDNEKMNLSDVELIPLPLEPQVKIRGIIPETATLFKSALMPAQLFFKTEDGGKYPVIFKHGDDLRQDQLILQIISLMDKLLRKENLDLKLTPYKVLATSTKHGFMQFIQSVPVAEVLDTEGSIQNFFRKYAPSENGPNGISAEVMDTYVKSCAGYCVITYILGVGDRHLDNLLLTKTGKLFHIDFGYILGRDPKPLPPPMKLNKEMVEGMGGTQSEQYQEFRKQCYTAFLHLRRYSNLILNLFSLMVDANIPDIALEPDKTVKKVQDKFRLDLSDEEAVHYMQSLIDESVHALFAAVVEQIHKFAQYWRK
PI 3-kinase delta, sequence (O00329 whole entry): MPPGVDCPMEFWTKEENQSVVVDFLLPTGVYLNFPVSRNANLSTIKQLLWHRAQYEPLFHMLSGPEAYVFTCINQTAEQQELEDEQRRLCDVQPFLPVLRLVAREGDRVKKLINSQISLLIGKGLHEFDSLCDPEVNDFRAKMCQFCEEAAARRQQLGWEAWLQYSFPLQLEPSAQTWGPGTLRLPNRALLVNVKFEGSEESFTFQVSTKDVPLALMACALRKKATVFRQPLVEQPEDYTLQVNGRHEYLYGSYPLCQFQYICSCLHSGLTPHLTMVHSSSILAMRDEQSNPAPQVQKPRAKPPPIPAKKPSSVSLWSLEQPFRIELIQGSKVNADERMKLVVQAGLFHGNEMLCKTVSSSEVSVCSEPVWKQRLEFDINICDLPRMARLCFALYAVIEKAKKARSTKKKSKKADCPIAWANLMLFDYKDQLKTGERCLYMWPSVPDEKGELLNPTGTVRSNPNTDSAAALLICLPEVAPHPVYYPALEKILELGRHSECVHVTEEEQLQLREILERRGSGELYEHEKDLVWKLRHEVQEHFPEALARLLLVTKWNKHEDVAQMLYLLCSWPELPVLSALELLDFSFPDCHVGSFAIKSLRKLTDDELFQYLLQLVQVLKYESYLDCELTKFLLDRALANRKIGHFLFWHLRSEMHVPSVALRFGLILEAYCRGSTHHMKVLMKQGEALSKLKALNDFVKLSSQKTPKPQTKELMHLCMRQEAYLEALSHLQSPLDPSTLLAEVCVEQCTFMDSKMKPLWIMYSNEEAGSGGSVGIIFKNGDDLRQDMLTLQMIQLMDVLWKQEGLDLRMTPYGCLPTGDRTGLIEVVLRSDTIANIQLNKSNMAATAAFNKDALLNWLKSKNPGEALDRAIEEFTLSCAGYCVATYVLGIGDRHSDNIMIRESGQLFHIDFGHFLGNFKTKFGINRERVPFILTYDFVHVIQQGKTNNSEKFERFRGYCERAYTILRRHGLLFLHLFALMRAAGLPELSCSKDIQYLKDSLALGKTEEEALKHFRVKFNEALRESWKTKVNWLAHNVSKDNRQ
PI 3-kinase delta, sequence (P27986 461-568 partner): as the sequence (P27986 461-568 partner) above
PI 3-kinase alpha, sequence (P42336 whole entry): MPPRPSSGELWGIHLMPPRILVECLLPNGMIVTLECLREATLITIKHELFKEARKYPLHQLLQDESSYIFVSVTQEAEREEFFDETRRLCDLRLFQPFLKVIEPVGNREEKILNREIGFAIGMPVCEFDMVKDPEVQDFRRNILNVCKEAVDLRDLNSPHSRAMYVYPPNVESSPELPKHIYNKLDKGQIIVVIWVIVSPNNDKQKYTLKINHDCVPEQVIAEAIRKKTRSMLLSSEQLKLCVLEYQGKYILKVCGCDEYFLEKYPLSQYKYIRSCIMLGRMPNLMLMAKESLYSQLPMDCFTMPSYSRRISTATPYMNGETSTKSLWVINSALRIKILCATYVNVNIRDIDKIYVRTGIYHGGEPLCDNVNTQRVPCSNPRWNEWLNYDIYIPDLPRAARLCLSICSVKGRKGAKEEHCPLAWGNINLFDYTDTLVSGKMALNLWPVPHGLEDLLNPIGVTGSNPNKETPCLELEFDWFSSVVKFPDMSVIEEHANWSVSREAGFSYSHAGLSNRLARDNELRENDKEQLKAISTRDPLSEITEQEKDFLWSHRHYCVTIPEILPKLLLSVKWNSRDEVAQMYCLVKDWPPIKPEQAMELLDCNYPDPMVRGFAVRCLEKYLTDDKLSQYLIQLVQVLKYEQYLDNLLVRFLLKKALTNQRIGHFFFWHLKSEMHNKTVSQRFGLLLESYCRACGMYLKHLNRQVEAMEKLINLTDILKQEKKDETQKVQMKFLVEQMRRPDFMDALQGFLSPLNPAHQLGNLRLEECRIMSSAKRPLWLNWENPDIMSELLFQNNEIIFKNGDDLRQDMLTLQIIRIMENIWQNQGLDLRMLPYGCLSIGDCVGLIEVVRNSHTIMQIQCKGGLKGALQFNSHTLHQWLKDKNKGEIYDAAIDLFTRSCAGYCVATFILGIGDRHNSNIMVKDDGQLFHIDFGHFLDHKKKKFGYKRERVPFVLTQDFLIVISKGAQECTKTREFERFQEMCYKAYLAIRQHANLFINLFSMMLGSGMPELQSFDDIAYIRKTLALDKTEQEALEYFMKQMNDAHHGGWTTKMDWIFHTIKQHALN
Protocol for Vps34: Kinase Glo Luminescent Kinase Assay (Kglo) for Pb 3-Kinase Alpha (A), Pb 3-Kinase Beta (B), Vps34 (C), Pb 4-Kinase Beta (D)
The Kinase Glo Luminescent Kinase Assay (Promega, Madison/Wis., USA) is a homogeneous HTS method of measuring kinase activity by quantifying the amount of ATP remaining in solution following a kinase reaction.
L-α-phosphatidylinositol (PI), provided as 10 mg/ml solution in methanol, was transferred into a glass tube and dried under a nitrogen beam. It was then resuspended in 3% OctylGlucoside (1-0-n-octyl-beta-D-glucopyranoside) by vortexing and stored at 4° C. 5 μL of a mix of PI/OctylGlucoside with the PI 3-kinase alpha and PI 3-kinase beta subtypes, or Vps34 or PI 4-kinase beta were added. Kinase reactions were started by the addition of 5 μl of an ATP-mix containing in a final volume 10 μL 10 mM TRIS-HCl pH 7.5, 3 mM MgCl2, 50 mM NaCl, 0.05% CHAPS, 1 mM DTT and 1 μM ATP at room temperature.
All fits were performed with the program XLfit4 (ID Business Solutions, Guildford, UK).
Protocol for mTOR: Lanthascreen™ Kinase Binding Assay for mTOR (G)
Binding of an inhibitor to the kinase competes for binding with the tracer, resulting in a loss of FRET.
50 nL of compound dilutions were dispensed onto white 384-well small volume polystyrene plate.

Consider `Cc1ccc(S(=O)(=O)N2CCC(F)(F)CC2)cc1-c1cnc(N)c(-n2cncn2)n1` [Example 127.33], for which, in data set [1], the “Assay M RLM CI(int)” value was 560 µL/min/mg. The IC50 at PI 3-kinase gamma is 0.17 µM; at PI 3-kinase alpha, 0.74 µM; on mTOR, more than 10 µM; at PI 3-kinase delta (read-out: Assay F PI3Kδ IC50), 8.7 µM; at PI 4-kinase beta, more than 10 µM; at Vps34 it was more than 10 µM. Also, the IC50 at PI 3-kinase beta is more than 10 µM.

With `Cc1cc(-c2nc(-c3cc(S(=O)(=O)NC[C@@H](C)O)ccc3C)cnc2N)ccn1` [Example 129, (R)-3-(5-Amino-6-(2-methylpyridin-4-yl)pyrazin-2-yl)-N-(2-hydroxypropyl)-4-methyl benzene sulfonamide trifluoroacetic acid salt], the “Assay M RLM CI(int)” value in data set [1] worked out at 28 µL/min/mg. Further, the concentration for half-maximal inhibition (IC50) at PI 3-kinase gamma was 0.024 µM; on PI 3-kinase alpha, 0.13 µM; on mTOR it was more than 9.1 µM; on PI 3-kinase delta (read-out: Assay F PI3Kδ IC50), 0.55 µM; on PI 4-kinase beta, more than 9.1 µM; at Vps34 it was more than 9.1 µM. The IC50 at PI 3-kinase beta is 7.3 µM.

`Cc1cc(-c2nc(-c3cc(S(=O)(=O)N[C@@H]4CCC[C@H]4N)ccc3C)cnc2N)ccn1` [Example 129.39, 3-(5-amino-6-(2-methylpyridin-4-yl)pyrazin-2-yl)-N-((1R,2R)-2-aminocyclopentyl)-4-methylbenzenesulfonamide]: the “Assay M RLM CI(int)” value in data set [1] was more than 924 µL/min/mg. The IC50 at PI 3-kinase gamma was 0.11 µM; on PI 3-kinase alpha, 0.73 µM; at mTOR, more than 9.1 µM; against PI 3-kinase delta, 0.91 µM; on PI 4-kinase beta it was more than 9.1 µM; at Vps34 it was more than 9.1 µM. Besides, at PI 3-kinase beta, the concentration for half-maximal inhibition (IC50) turned out to be 7.5 µM.

As to `Cc1cc(-c2nc(-c3cc(S(=O)(=O)NCC(C)(C)CN(C)C)ccc3C)cnc2N)ccn1` [Example 129.24, 3-(5-amino-6-(2-methylpyridin-4-yl)pyrazin-2-yl)-N-(3-(dimethylamino)-2,2-dimethylpropyl)-4-methylbenzenesulfonamide], the “Assay M RLM CI(int)” value in data set [1] was found to be 755 µL/min/mg. For the same molecule, the IC50 is 0.2 µM at PI 3-kinase gamma; more than 9.1 µM on PI 3-kinase alpha; more than 9.1 µM on mTOR; 6.6 µM on PI 3-kinase delta (read-out: Assay F PI3Kδ IC50); more than 9.1 µM at PI 4-kinase beta; more than 9.1 µM on Vps34. Besides, the IC50 on PI 3-kinase beta is more than 9.1 µM.

On to `Cc1nc(C)c(-c2nc(-c3cc(S(=O)(=O)NCC(C)(C)O)ccc3C)cnc2N)s1` [Example 46.1, 3-(5-Amino-6-(2,4-dimethylthiazol-5-yl)pyrazin-2-yl)-N-(2-hydroxy-2-methylpropyl)-4-methylbenzenesulfonamide], for which the “Assay M RLM CI(int)” value in data set [1] was 16 µL/min/mg. Moreover, the 50% inhibitory concentration (IC50) at PI 3-kinase gamma is 0.21 µM; on PI 3-kinase alpha, 1.4 µM; on mTOR, more than 10 µM; on PI 3-kinase delta (read-out: Assay F PI3Kδ IC50) it was 2.6 µM; on PI 4-kinase beta, more than 10 µM; on Vps34, more than 10 µM. Also, at PI 3-kinase beta, the concentration for half-maximal inhibition (IC50) was more than 10 µM.

Turning to `Cc1cc(-c2nc(-c3cc(S(=O)(=O)NCCN4CCOCC4)ccc3C)cnc2N)ccn1` [Example 129.28, 3-(5-amino-6-(2-methylpyridin-4-yl)pyrazin-2-yl)-4-methyl-N-(2-morpholinoethyl)benzenesulfonamide], the “Assay M RLM CI(int)” value in data set [1] was determined as 159 µL/min/mg. The IC50 at PI 3-kinase gamma was 0.14 µM; at PI 3-kinase alpha, 0.26 µM; at mTOR, more than 9.1 µM; at PI 3-kinase delta (read-out: Assay F PI3Kδ IC50), 1.1 µM; on PI 4-kinase beta it was more than 9.1 µM; on Vps34, more than 9.1 µM. Further, the IC50 at PI 3-kinase beta stood at 5.3 µM.

Turning to `Cc1ccc(S(=O)(=O)N2CCC(F)CC2)cc1-c1cnc(N)c(-n2cncn2)n1` [Example 127.34], in data set [1], the “Assay M RLM CI(int)” value was found to be 641 µL/min/mg. Further, the IC50 on PI 3-kinase gamma was 0.18 µM; at PI 3-kinase alpha, 1.5 µM; on mTOR, more than 10 µM; at PI 3-kinase delta (read-out: Assay F PI3Kδ IC50), 3.2 µM; on PI 4-kinase beta, 3 µM; at Vps34 it was more than 10 µM. Besides, at PI 3-kinase beta, the IC50 came to 5.3 µM.
